MIC and IC50 data for six compounds are collected here from ChEMBL document CHEMBL1221321, “Synthesis and properties of macrolones characterized by two ether bonds in the linker” (Bioorg Med Chem, 2010).

Values after ≈ are worked out from the molar mass of the structure shown.

Experiment [1] relates to Staphylococcus aureus. Put plainly: Antibacterial activity against efflux-mediated macrolide-resistance Staphylococcus aureus PK1 by broth microdilution method. Type of experiment: functional. (Broth dilution looks for growth in wells or tubes with falling amounts of substance.)
Experiment [2] deals with Streptococcus pyogenes. Put plainly: Antibacterial activity against inducible resistance to macrolide, licosamide and streptogramin Streptococcus pyogenes 11 by broth microdilution method. It is filed as functional. To be noted: read-out: MIC.
The subject of another experiment is HepG2. Put plainly: Cytotoxicity against human HepG2 cells after 24 hrs by MTS assay. The conditions noted are these: HepG2, 24 h. It is filed as cell-based. A general note: Tetrazolium dyes change colour on reduction, which living cells bring about.
In experiment [3] the test system is Streptococcus pneumoniae. Kind of experiment: Antibacterial activity against efflux-mediated macrolide-resistance Streptococcus pneumoniae Ci137 by broth microdilution method. It is filed as functional. The conditions noted are these: read-out: MIC.
Experiment [4] has as its system Staphylococcus aureus. Kind of experiment: Antibacterial activity against inducible resistance to macrolide, licosamide, and streptogramin Staphylococcus aureus 90265/97 by broth microdilution method. It is filed as functional.
Experiment [5] concerns Streptococcus pneumoniae. Put plainly: Antibacterial activity against constitutive MLS resistance Streptococcus pneumoniae 58 by broth microdilution method. Type of experiment: functional.
In experiment [6] the test system is Streptococcus pyogenes. Kind of experiment: Antibacterial activity against constitutive MLS resistance Streptococcus pyogenes 166 GR-Micro by broth microdilution method. Type of experiment: functional.
In a further experiment the test system is THP-1. Kind of experiment: Cytotoxicity against human THP1 cells after 24 hrs by MTS assay. It is filed as cell-based. To be noted: THP-1, 24 h.
The test system of experiment [7] is Streptococcus pneumoniae. Kind of experiment: Antibacterial activity against inducible resistance to macrolide and constitutive resistance to lincosamide Streptococcus pneumoniae 134 GR M by broth microdilution method. Type of experiment: functional.
The subject of experiment [8] is Streptococcus pyogenes. Put plainly: Antibacterial activity against efflux-mediated macrolide-resistance Streptococcus pyogenes 2 by broth microdilution method. It is filed as functional.
In another experiment the test system is Haemophilus influenzae. Kind of experiment: Antibacterial activity against Haemophilus influenzae ATCC 49247 by broth microdilution method. It is filed as functional.

Take `CC[C@H]1OC(=O)[C@H](C)[C@@H](O[C@H]2C[C@@](C)(OC)[C@@H](OCCCOCCCCc3cc4c5c(c3)c(=O)c(C(=O)O)cn5C(C)(C)CO4)[C@H](C)O2)[C@H](C)[C@@H](O[C@@H]2O[C@H](C)C[C@H](N(C)C)[C@H]2O)[C@](C)(O)C[C@@H](C)CN(C)[C@H](C)[C@@H](O)[C@]1(C)O`: the MIC in the experiment on Staphylococcus aureus [1] is no more than 0.125 µg/mL; in the experiment with Streptococcus pyogenes [2] it was no more than 0.125 µg/mL; in the experiment with Streptococcus pneumoniae [3], no more than 0.125 µg/mL; with Staphylococcus aureus [4], no more than 0.125 µg/mL; against Streptococcus pneumoniae [5], no more than 0.125 µg/mL; in the experiment with Streptococcus pyogenes [6] it was 0.5 µg/mL (≈ 0.446 µM). In addition, the MIC against Streptococcus pneumoniae [7] was 0.5 µg/mL (≈ 0.446 µM); in the experiment on Streptococcus pyogenes [8] it was no more than 0.125 µg/mL; with Haemophilus influenzae, 1 µg/mL (≈ 0.893 µM). For the same compound, the IC50 with HepG2 worked out at 46 µM; in the experiment with THP-1, 11 µM.
In the case of `CC[C@H]1OC(=O)[C@H](C)[C@@H](O[C@H]2C[C@@](C)(OC)[C@@H](OCCCOCCCc3ccc4c(c3)c(=O)c(C(=O)O)cn4CCN(C)C)[C@H](C)O2)[C@H](C)[C@@H](O[C@@H]2O[C@H](C)C[C@H](N(C)C)[C@H]2O)[C@](C)(O)C[C@@H](C)CN(C)[C@H](C)[C@@H](O)[C@]1(C)O`, the MIC in the experiment with Staphylococcus aureus [1] is no more than 0.125 µg/mL; with Streptococcus pyogenes [2], no more than 0.125 µg/mL; in the experiment with Streptococcus pneumoniae [3], no more than 0.125 µg/mL; against Staphylococcus aureus [4], no more than 0.125 µg/mL; against Streptococcus pneumoniae [5] it was no more than 0.125 µg/mL; in the experiment on Streptococcus pyogenes [6], 1 µg/mL (≈ 0.903 µM). The MIC stood at 0.25 µg/mL (≈ 0.226 µM) against Streptococcus pneumoniae [7], 0.25 µg/mL (≈ 0.226 µM) against Streptococcus pyogenes [8] and 4 µg/mL (≈ 3.61 µM) in the experiment on Haemophilus influenzae. Moreover, the 50% inhibitory concentration (IC50) with HepG2 and in the experiment on THP-1 was greater than 50 µM each time.
For `CC[C@H]1OC(=O)[C@H](C)[C@@H](O[C@H]2C[C@@](C)(OC)[C@@H](OCCCOCCCCCc3ccc4c(c3)c(=O)c(C(=O)O)cn4N(C)C)[C@H](C)O2)[C@H](C)[C@@H](O[C@@H]2O[C@H](C)C[C@H](N(C)C)[C@H]2O)[C@](C)(O)C[C@@H](C)CN(C)[C@H](C)[C@@H](O)[C@]1(C)O`, the MIC in the experiment with Staphylococcus aureus [1] is no more than 0.125 µg/mL; with Streptococcus pyogenes [2], no more than 0.125 µg/mL; in the experiment on Streptococcus pneumoniae [3] it was no more than 0.125 µg/mL; against Staphylococcus aureus [4] it was no more than 0.125 µg/mL; against Streptococcus pneumoniae [5], no more than 0.125 µg/mL; against Streptococcus pyogenes [6] it was 0.25 µg/mL (≈ 0.226 µM). Also, the MIC with Streptococcus pneumoniae [7] was 0.5 µg/mL (≈ 0.451 µM); against Streptococcus pyogenes [8], no more than 0.125 µg/mL; with Haemophilus influenzae it was 1 µg/mL (≈ 0.903 µM). The IC50 in the experiment on HepG2 is 13 µM; with THP-1 it was 8 µM.
As to `CCCn1cc(C(=O)O)c(=O)c2cc(CCCOCCCO[C@H]3[C@H](C)O[C@@H](O[C@H]4[C@H](C)[C@@H](O[C@@H]5O[C@H](C)C[C@H](N(C)C)[C@H]5O)[C@](C)(O)C[C@@H](C)CN(C)[C@H](C)[C@@H](O)[C@](C)(O)[C@@H](CC)OC(=O)[C@@H]4C)C[C@@]3(C)OC)ccc21`, the MIC against Staphylococcus aureus [1] was no more than 0.125 µg/mL; in the experiment with Streptococcus pyogenes [2] it was no more than 0.125 µg/mL; in the experiment with Streptococcus pneumoniae [3], no more than 0.125 µg/mL; in the experiment on Staphylococcus aureus [4] it was 0.25 µg/mL (≈ 0.232 µM); with Streptococcus pneumoniae [5], no more than 0.125 µg/mL; against Streptococcus pyogenes [6], 0.25 µg/mL (≈ 0.232 µM). In addition, the MIC in the experiment with Streptococcus pneumoniae [7] is no more than 0.125 µg/mL; in the experiment on Streptococcus pyogenes [8], no more than 0.125 µg/mL; against Haemophilus influenzae, 2 µg/mL (≈ 1.85 µM). Further, the 50% inhibitory concentration (IC50) in the experiment with HepG2 worked out at 40 µM; in the experiment on THP-1, 18 µM.
Regarding `CC[C@H]1OC(=O)[C@H](C)[C@@H](O[C@H]2C[C@@](C)(OC)[C@@H](OCCCOCCCc3ccc4c(c3)c(=O)c(C(=O)O)cn4CCOC)[C@H](C)O2)[C@H](C)[C@@H](O[C@@H]2O[C@H](C)C[C@H](N(C)C)[C@H]2O)[C@](C)(O)C[C@@H](C)CN(C)[C@H](C)[C@@H](O)[C@]1(C)O`, the MIC against Staphylococcus aureus [1], in the experiment with Streptococcus pyogenes [2], with Streptococcus pneumoniae [3], against Staphylococcus aureus [4], with Streptococcus pneumoniae [5] and in the experiment with Streptococcus pyogenes [6] was no more than 0.125 µg/mL throughout. Besides, the MIC in the experiment on Streptococcus pneumoniae [7] was no more than 0.125 µg/mL; against Streptococcus pyogenes [8], no more than 0.125 µg/mL; against Haemophilus influenzae, 2 µg/mL (≈ 1.83 µM). Moreover, the half-inhibitory concentration (IC50) in the experiment on HepG2 and in the experiment on THP-1 was greater than 50 µM throughout.
As for `CCCCn1cc(C(=O)O)c(=O)c2cc(CCCOCCCO[C@H]3[C@H](C)O[C@@H](O[C@H]4[C@H](C)[C@@H](O[C@@H]5O[C@H](C)C[C@H](N(C)C)[C@H]5O)[C@](C)(O)C[C@@H](C)CN(C)[C@H](C)[C@@H](O)[C@](C)(O)[C@@H](CC)OC(=O)[C@@H]4C)C[C@@]3(C)OC)ccc21`, the MIC with Staphylococcus aureus [1], with Streptococcus pyogenes [2], in the experiment on Streptococcus pneumoniae [3], in the experiment with Staphylococcus aureus [4], in the experiment on Streptococcus pneumoniae [5] and against Streptococcus pyogenes [6] was no more than 0.125 µg/mL each time. Further, the MIC is no more than 0.125 µg/mL in the experiment with Streptococcus pneumoniae [7], no more than 0.125 µg/mL in the experiment with Streptococcus pyogenes [8] and 1 µg/mL (≈ 0.915 µM) against Haemophilus influenzae. Further, the IC50 in the experiment with HepG2 came to 49 µM; in the experiment on THP-1, 27 µM.

In general, IC50 refers to the concentration that gives 50% inhibition. High values mean a need for much substance, low ones inhibition by little substance.
